ChEMBL document CHEMBL4190179 (Medchemcomm, 2016)
pIC50: −log10 of the molar value.

Organism: Mus musculus
Assay: (§1) Inhibition of PMA-stimulated Il-17A production in mouse Th17 cells by live/dead fixable dead cell staining based flow cytometric analysis
Type: functional

With O=C(Nc1ccc(-c2cc(OC(F)(F)F)ccc2Cl)cc1)c1c(F)cccc1F as the compound, how does the inhibition read?
Its inhibition is “Dose-dependent effect”.

Test system: not listed separately
Assay: as §1
Type: functional

With O=C(Nc1ccc(-c2cc(OC(F)(F)F)ccc2Cl)cc1)c1c(F)cccc1F as the compound, how does the pIC50 read?
Its pIC50 is 7.89.

Test system: not listed separately
Assay: Inhibition of PMA-stimulated Il-17A production in mouse Th17 cells at 0.3 uM by live/dead fixable dead cell staining based flow cytometric analysis relative to control
Type: functional

For COc1ccc(Cl)c(-c2ccc(NC(=O)C3CCCO3)cc2)c1 (configuration not stated), which inhibition at 0.3 µM is on record?
Its inhibition at 0.3 µM is 30%.

With COc1ccc(Cl)c(-c2ccc(NC(=O)c3ncccc3F)cc2)c1 as the compound, how does the inhibition at 0.3 µM read?
Its inhibition at 0.3 µM is 22%.

With COc1ccc(Cl)c(-c2ccc(NC(=O)c3ccccc3F)cc2)c1 as the compound, how does the inhibition at 0.3 µM read?
The inhibition at 0.3 µM was 43%.

Which inhibition at 0.3 µM does the source give for O=C(Nc1ccc(-c2ccccc2Cl)cc1)c1c(F)cccc1F here?
Its inhibition at 0.3 µM is 48%.

With COc1ccc(Cl)c(-c2cccc(NC(=O)c3c(F)cccc3F)c2)c1 as the compound, how does the inhibition at 0.3 µM read?
The inhibition at 0.3 µM was 12%.

Which inhibition at 0.3 µM does the source give for COc1ccc(Cl)c(-c2ccc(NC(=O)Cc3ccccc3)cc2)c1 here?
The inhibition at 0.3 µM was 33%.

With COc1ccc(Cl)c(-c2ccc(NC(=O)c3c(F)cccc3Cl)cc2)c1 as the compound, how does the inhibition at 0.3 µM read?
Its inhibition at 0.3 µM is 64%.

For COc1ccc(Cl)c(-c2ccc(NC(=O)CCc3ccccc3)cc2)c1, which inhibition at 0.3 µM is on record?
The inhibition at 0.3 µM was 24%.

Which inhibition at 0.3 µM does the source give for Cn1cc(-c2ccc(NC(=O)c3c(F)cccc3F)cc2)cn1 here?
Its inhibition at 0.3 µM is -7%.

Which inhibition at 0.3 µM does the source give for COc1ccc(Cl)c(-c2ccc(NC(=O)c3ccccc3Cl)cc2)c1 here?
The inhibition at 0.3 µM was 39%.

Which inhibition at 0.3 µM does the source give for Cc1ccccc1-c1ccc(NC(=O)c2c(F)cccc2F)cc1 here?
The inhibition at 0.3 µM was 60%.

With COc1ccc(Cl)c(-c2ccc(NC(=O)C3CCCCC3)cc2)c1 as the compound, how does the inhibition at 0.3 µM read?
Its inhibition at 0.3 µM is 26%.

With COc1ccc(Cl)c(-c2ccc(NC(=O)c3c(F)cccc3F)cc2)c1 as the compound, how does the inhibition at 0.3 µM read?
The inhibition at 0.3 µM was 71%.

For COc1ccc(Cl)c(-c2ccc(NC(=O)c3c(F)cccc3F)cn2)c1, which inhibition at 0.3 µM is on record?
The inhibition at 0.3 µM was 29%.

For O=C(Nc1ccc(-c2cccnc2)cc1)c1c(F)cccc1F, which inhibition at 0.3 µM is on record?
Its inhibition at 0.3 µM is 17%.

Which inhibition at 0.3 µM does the source give for COc1ccc(Cl)c(-c2ccc(NC(C)=O)cc2)c1 here?
The inhibition at 0.3 µM was 11%.

With COCC(=O)Nc1ccc(-c2cc(OC)ccc2Cl)cc1 as the compound, how does the inhibition at 0.3 µM read?
The inhibition at 0.3 µM was 1%.

For COc1ccc(Cl)c(-c2ccc(NC(=O)c3c(F)cccc3F)cc2F)c1, which inhibition at 0.3 µM is on record?
The inhibition at 0.3 µM was 82%.

Which inhibition at 0.3 µM does the source give for Cc1ccc(-c2ccc(NC(=O)c3c(F)cccc3F)cc2)cn1 here?
The inhibition at 0.3 µM was 4%.

With COc1ccc(Cl)c(-c2ccc(NC(=O)CC3CCOCC3)cc2)c1 as the compound, how does the inhibition at 0.3 µM read?
The inhibition at 0.3 µM was 8%.

Which inhibition at 0.3 µM does the source give for COc1ccc(Cl)c(-c2ccc(NC(=O)C3CC3)cc2)c1 here?
The inhibition at 0.3 µM was 35%.

With COc1ccc(Cl)c(-c2ccc(NC(=O)C(C)C)cc2)c1 as the compound, how does the inhibition at 0.3 µM read?
Its inhibition at 0.3 µM is 22%.

Which inhibition at 0.3 µM does the source give for COc1ccc(Cl)c(-c2ccc(NC(=O)C3CCOCC3)cc2)c1 here?
The inhibition at 0.3 µM was 35%.

Which inhibition at 0.3 µM does the source give for O=C(Nc1ccc(-c2ccccc2)cc1)c1c(F)cccc1F here?
The inhibition at 0.3 µM was 45%.

For COc1ccc(C)c(-c2ccc(NC(=O)c3c(F)cccc3F)cc2)c1, which inhibition at 0.3 µM is on record?
The inhibition at 0.3 µM was 93%.

For O=C(Nc1ccc(-c2cc(OC(F)(F)F)ccc2Cl)cc1)c1c(F)cccc1F, which inhibition at 0.3 µM is on record?
Its inhibition at 0.3 µM is 97%.

For COc1ccc(Cl)c(-c2ccc(NC(=O)C3CCN(C)CC3)cc2)c1, which inhibition at 0.3 µM is on record?
Its inhibition at 0.3 µM is 16%.

With COc1ccc(Cl)c(-c2ccc(NC(=O)C3CCCC3)cc2)c1 as the compound, how does the inhibition at 0.3 µM read?
The inhibition at 0.3 µM was 34%.

Which inhibition at 0.3 µM does the source give for COc1ccc(Cl)c(-c2ccc(NC(=O)c3c(F)cccc3F)cc2Cl)c1 here?
The inhibition at 0.3 µM was 75%.

For COc1ccc(Cl)c(-c2ccc(NC(=O)CC3CC3)cc2)c1, which inhibition at 0.3 µM is on record?
The inhibition at 0.3 µM was 9%.

Which inhibition at 0.3 µM does the source give for COc1ccc(Cl)c(-c2ccc(NC(=O)c3ccccc3C(F)(F)F)cc2)c1 here?
Its inhibition at 0.3 µM is 25%.

Which inhibition at 0.3 µM does the source give for COc1ccc(Cl)c(-c2ccc(NC(=O)Cc3ccccc3F)cc2)c1 here?
Its inhibition at 0.3 µM is 19%.

With O=C(O)c1ccc(Cl)c(-c2ccc(NC(=O)c3c(F)cccc3F)cc2)c1 as the compound, how does the inhibition at 0.3 µM read?
The inhibition at 0.3 µM was 7%.

For COc1ccc(Cl)c(-c2ccc(NC(=O)c3ccccc3)cc2)c1, which inhibition at 0.3 µM is on record?
The inhibition at 0.3 µM was 35%.

Molecular target: T1, Nuclear receptor ROR-gamma (Homo sapiens, UniProt P51449)
T1 sequence (P51449 whole entry): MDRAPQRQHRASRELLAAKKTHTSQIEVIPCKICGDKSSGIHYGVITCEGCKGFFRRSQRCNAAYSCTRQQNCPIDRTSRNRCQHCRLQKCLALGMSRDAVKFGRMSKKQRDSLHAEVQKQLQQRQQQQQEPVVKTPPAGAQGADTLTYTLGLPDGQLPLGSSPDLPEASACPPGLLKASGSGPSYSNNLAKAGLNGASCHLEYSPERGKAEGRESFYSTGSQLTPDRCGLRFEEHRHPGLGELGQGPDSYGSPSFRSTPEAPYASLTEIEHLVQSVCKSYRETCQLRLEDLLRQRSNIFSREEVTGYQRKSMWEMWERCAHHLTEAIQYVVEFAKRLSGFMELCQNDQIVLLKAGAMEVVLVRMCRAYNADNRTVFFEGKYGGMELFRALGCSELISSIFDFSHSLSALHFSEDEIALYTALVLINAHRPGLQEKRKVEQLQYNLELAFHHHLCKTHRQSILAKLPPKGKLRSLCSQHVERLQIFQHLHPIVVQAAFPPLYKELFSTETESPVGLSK
Assay: Inverse agonist activity at RORgammat (unknown origin) by FRET assay

With O=C(Nc1ccc(-c2cc(OC(F)(F)F)ccc2Cl)cc1)c1c(F)cccc1F as the compound, how does the pIC50 read?
Its pIC50 is < 4.30.
